# Read-outs that look alike come from different tables or passages of the source.
# Columns and labels:
# [1] = logP determination by retention times (calibration with alkan-2-ones)
# Leptosphaeria nodorum = Leptosphaeria nodorum test (wheat)/protective; type: in vivo; details: Parastagonospora nodorum, 240 h, protective spray, active compound concentration 1000 ppm, evaluation 10 days after inoculation, read-out: efficacy
# Method: Leptosphaeria Nodorum Test (Wheat)/Protective [table] […] After the spray coating has dried on, the plants are sprayed with a spore suspension of Leptosphaeria nodorum. The plants remain in an incubation cabin at 20° C. and 100% relative atmospheric humidity for 48 hours. The plants are placed in a greenhouse at a temperature of about 20° C. and a relative atmospheric humidity of 80%.
# Phytophthora infestans = assay: whole plant or invertebrate; type: in vivo; details: in Solanum lycopersicum, 168 h, read-out: efficacy
# Fusarium graminearum = assay: whole plant or invertebrate; type: in vivo; details: in Hordeum vulgare, 96 h, read-out: efficacy
# [2] = logP, * HPLC reversed-phase C18, 40° C., mobile phase 0.1% aqueous formic acid and acetonitrile, linear gradient 10% to 95% acetonitrile
SMILES,chromatographic logP [1],pest or weed control at 1000 ppm (Leptosphaeria nodorum) [%],pest or weed control at 500 ppm (Phytophthora infestans) [%],pest or weed control at 1000 ppm (Fusarium graminearum) [%],"chromatographic logP [1, 2]"
"CC(=O)c1cccc(Nc2nccc(-c3sc(C4CC4)nc3C)n2)c1 [Example 7, 1-(3-{[4-(2-cyclopropyl-4-methyl-1,3-thiazol-5-yl)pyrimidin-2-yl]amino}phenyl)ethanone]",2.88,≥ 70,,,
"Cc1nc(C)c(-c2ccnc(Nc3ccc(N(C)C)c(Cl)c3)n2)s1 [Example 62, 2-chloro-N4-[4-(2,4-dimethyl-1,3-thiazol-5-yl)pyrimidin-2-yl]-N1,N1-dimethylbenzene-1,4-diamine]",2.06,≥ 70,,,
"CCc1nc(C)c(-c2ccnc(Nc3ccc(NC(=O)OCCOC)cc3)n2)s1 [Example 73, 2-methoxyethyl-(4-{[4-(2-ethyl-4-methyl-1,3-thiazol-5-yl)pyrimidin-2-yl]amino}phenyl)carbamate]",2.36,≥ 70,≥ 70,,
"Cc1nc(C(C)C)sc1-c1ccnc(Nc2cccc(O)c2)n1 [Example 151, 3-{[4-(2-isopropyl-4-methyl-1,3-thiazol-5-yl)pyrimidin-2-yl]amino}phenol]",2.42,≥ 70,,≥ 70,
"COc1cc(Nc2nccc(-c3sc(C)nc3C)n2)cc(OC)c1OC [Example 182, 4-(2,4-dimethyl-1,3-thiazol-5-yl)-N-(3,4,5-trimethoxyphenyl)pyrimidine-2-amine]",2.1,≥ 70,≥ 70,≥ 70,
"Cc1nc(C)c(-c2ccnc(Nc3ccccc3)n2)s1 [Example 190, 4-(2,4-dimethyl-1,3-thiazol-5-yl)-N-phenylpyrimidine-2-amine]",2.4,≥ 70,,≥ 70,
"CCc1nc(C)c(-c2ccnc(Nc3cc(OC)c(OC)c(OC)c3)n2)s1 [Example 235, 4-(2-ethyl-4-methyl-1,3-thiazol-5-yl)-N-(3,4,5-trimethoxyphenyl)pyrimidine-2-amine]",2.61,,≥ 70,≥ 70,
"CCc1nc(C)c(-c2ccnc(Nc3ccc(OC)nc3)n2)s1 [Example 240, 4-(2-ethyl-4-methyl-1,3-thiazol-5-yl)-N-(6-methoxypyridin-3-yl)pyrimidine-2-amine]",2.33,≥ 70,,≥ 70,
"CCc1nc(C)c(-c2ccnc(Nc3ccccc3)n2)s1 [Example 243, 4-(2-ethyl-4-methyl-1,3-thiazol-5-yl)-N-phenylpyrimidine-2-amine]",3.07,,≥ 70,≥ 70,
"COc1cc(Nc2nccc(-c3sc(C(C)C)nc3C)n2)cc(OC)c1OC [Example 244, 4-(2-isopropyl-4-methyl-1,3-thiazol-5-yl)-N-(3,4,5-trimethoxyphenyl)pyrimidine-2-amine]",2.99,≥ 70,,≥ 70,
"COc1ccc(Nc2nccc(-c3sc(C(C)C)nc3C)n2)cn1 [Example 247, 4-(2-isopropyl-4-methyl-1,3-thiazol-5-yl)-N-(6-methoxypyridin-3-yl)pyrimidine-2-amine]",2.76,≥ 70,≥ 70,≥ 70,
"Cc1nc(C(C)C)sc1-c1ccnc(Nc2ccccc2)n1 [Example 251, 4-(2-isopropyl-4-methyl-1,3-thiazol-5-yl)-N-phenylpyrimidine-2-amine]",3.55,≥ 70,≥ 70,≥ 70,
"CCOC(=O)c1cccc(Nc2nccc(-c3sc(C(C)C)nc3C)n2)c1 [Example 375, ethyl-3-{[4-(2-isopropyl-4-methyl-1,3-thiazol-5-yl)pyrimidin-2-yl]amino}benzoate]",3.83,,,≥ 70,
"CC(=O)Nc1ccc(Nc2nccc(-c3sc(C(C)C)nc3C)n2)cc1 [Example 461, N-(4-{[4-(2-isopropyl-4-methyl-1,3-thiazol-5-yl)pyrimidin-2-yl]amino}phenyl)acetamide]",,≥ 70,,≥ 70,2.15
"Cc1nc(C)c(-c2ccnc(Nc3ccc(F)cc3F)n2)s1 [Example 759, N-(2,4-difluorophenyl)-4-(2,4-dimethyl-1,3-thiazol-5-yl)pyrimidine-2-amine]",,≥ 70,,,2.8

# Source: US20090030024A1, “THIAZOLES AS FUNGICIDES” (priority 2005, published 2009)
